Laboratory results: ChEMBL document CHEMBL4007387, “Therapeutic evolution of benzimidazole derivatives in the last quinquennial period” (Eur J Med Chem, 2017)

Columns and labels:
PBMC = experiment: Antiproliferative activity against human PBMC after 48 hrs by MTT assay; assay type: cell-based
Hep 3B2 = experiment: Antiproliferative activity against human Hep3B cells after 48 hrs by MTT assay; assay type: functional, cell-based
MCF7 = experiment: Antiproliferative activity against human MCF7 cells after 48 hrs by MTT assay; assay type: functional, cell-based; conditions: MCF7, 48 h
HeLa = experiment: Antiproliferative activity against human HeLa cells after 48 hrs by MTT assay; assay type: functional, cell-based
NIH3T3 = experiment: Antiproliferative activity against mouse NIH/3T3 cells after 72 hrs by real-time cell analysis; assay type: cell-based; conditions: NIH3T3, 72 h

Row | IC50 (MCF7) [µM] | IC50 (HeLa) [µM] | Compound | IC50 (PBMC) [µM] | IC50 (Hep 3B2) [µM] | IC50 (NIH3T3) [µM]
1 | 24.2 | 5.34 | Cc1nc2ccccc2n1CC(=O)NN | 23 | 40.5 | –
2 | – | – | COc1ccc2[nH]c(SCC(=O)Nc3ccc(-c4csc(-c5ccccc5)n4)cc3)nc2c1 | – | – | 74.6
